Laboratory results as given in BindingDB's records for doi:10.7270/Q2M32T6M (Vanderbilt Screening Center for GPCRs, Ion Channels and …, 2009).

molecular target: T1, Solute carrier family 12 member 5 (Homo sapiens, UniProt Q9H2X9); assay: KCC2 modulator potency by thallium flux, dose response, cell-based, HEK293 KCC2, FluoZin-2 fluorescence (AID 1736); settings: not given
T1 sequence (Q9H2X9 whole entry): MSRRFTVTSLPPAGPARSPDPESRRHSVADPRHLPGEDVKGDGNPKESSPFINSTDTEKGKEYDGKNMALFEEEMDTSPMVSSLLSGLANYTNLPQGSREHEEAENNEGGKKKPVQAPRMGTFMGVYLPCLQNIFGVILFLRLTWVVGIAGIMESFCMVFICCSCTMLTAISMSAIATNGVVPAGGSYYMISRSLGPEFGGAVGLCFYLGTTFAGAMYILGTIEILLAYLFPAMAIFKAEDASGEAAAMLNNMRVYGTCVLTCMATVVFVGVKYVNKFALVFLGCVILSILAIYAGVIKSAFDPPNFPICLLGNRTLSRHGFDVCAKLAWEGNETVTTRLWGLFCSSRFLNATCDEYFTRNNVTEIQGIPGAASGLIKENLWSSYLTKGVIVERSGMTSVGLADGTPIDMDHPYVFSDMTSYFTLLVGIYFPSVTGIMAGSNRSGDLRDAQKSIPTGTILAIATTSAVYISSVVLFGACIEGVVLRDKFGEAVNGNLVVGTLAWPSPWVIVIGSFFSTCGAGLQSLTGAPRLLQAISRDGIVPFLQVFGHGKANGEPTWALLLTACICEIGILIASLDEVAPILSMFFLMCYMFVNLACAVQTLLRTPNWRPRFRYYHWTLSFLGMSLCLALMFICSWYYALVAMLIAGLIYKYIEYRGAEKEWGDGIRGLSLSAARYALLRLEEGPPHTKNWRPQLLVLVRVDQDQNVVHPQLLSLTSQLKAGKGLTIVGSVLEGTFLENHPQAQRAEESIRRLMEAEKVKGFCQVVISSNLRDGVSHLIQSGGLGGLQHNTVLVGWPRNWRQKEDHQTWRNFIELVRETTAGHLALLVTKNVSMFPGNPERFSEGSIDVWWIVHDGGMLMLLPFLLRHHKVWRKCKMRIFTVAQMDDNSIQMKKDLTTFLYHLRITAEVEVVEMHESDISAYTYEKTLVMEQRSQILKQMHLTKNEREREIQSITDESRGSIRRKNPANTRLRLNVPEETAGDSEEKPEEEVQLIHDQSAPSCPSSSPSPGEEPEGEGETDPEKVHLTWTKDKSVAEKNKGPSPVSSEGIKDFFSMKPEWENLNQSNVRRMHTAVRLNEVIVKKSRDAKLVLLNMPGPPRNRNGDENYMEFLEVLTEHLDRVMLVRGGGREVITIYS

SMILES | EC50 [µM]
CCN(CC)c1ccc2c(C)c(-c3ccc(N)cc3)c(=O)oc2c1 [3-(4-aminophenyl)-7-(diethylamino)-4-methyl-1-benzopyran-2-one] | 1.15
O=C(COC(=O)c1cc([N+](=O)[O-])ccc1NCc1ccccc1)NC1CCCCC1 [2-(benzylamino)-5-nitro-benzoic acid [2-(cyclohexylamino)-2-keto-ethyl] ester] | 0.481
Cc1nn(-c2ccc(F)cc2)c(C)c1NS(=O)(=O)c1ccc2ccccc2c1 [MLS000565745] | 2.64
O=C(C1CCCN(S(=O)(=O)c2cccc3nonc23)C1)N1CCC(Cc2ccccc2)CC1 (stereo not given) [(1-benzofurazan-4-ylsulfonyl-3-piperidyl)-(4-benzylpiperidino)methanone] | 1460
O=C(c1cc(COc2c(F)cccc2F)on1)N1CCC(c2ccncc2)CC1 [4-[1-({5-[(2,6-difluorophenoxy)methyl]isoxazol-3-yl}carbonyl)piperidin-4-yl]pyridine] | 17.9
CCOC(=O)c1cc2c(ccn2C)n1CC(=O)N1CCC(Cc2ccccc2)CC1 [1-[2-(4-Benzyl-piperidin-1-yl)-2-oxo-ethyl]-4-methyl-1,4-dihydro-pyrrolo[3,2-b]pyrrole-2-carboxylic acid ethyl ester] | 10.8
O=C(C1CCN(c2nnc(-n3cccc3)s2)CC1)N1CCc2ccccc2C1 [3,4-dihydro-1H-isoquinolin-2-yl-[1-(5-pyrrol-1-yl-1,3,4-thiadiazol-2-yl)-4-piperidyl]methanone] | 9.6
O=C(CSc1ccc(-c2ccccc2)nn1)c1ccccc1 [1-phenyl-2-(6-phenylpyridazin-3-yl)sulfanyl-ethanone] | 1.06
O=C(OCC(=O)N1CCc2ccccc2C1)c1ccc(N2CCOCC2)c([N+](=O)[O-])c1 [4-(4-morpholinyl)-3-nitrobenzoic acid [2-(3,4-dihydro-1H-isoquinolin-2-yl)-2-oxoethyl] ester] | 11.5
Cc1ccc2[nH]c3c(N4CCN(Cc5ccccc5)CC4)ncnc3c2c1 [8-methyl-4-[4-(phenylmethyl)-1-piperazinyl]-5H-pyrimido[5,4-b]indole] | 3.25
O=C(CSc1nnc(Cc2ccccc2)o1)c1ccc(F)cc1 [1-(4-fluorophenyl)-2-[[5-(phenylmethyl)-1,3,4-oxadiazol-2-yl]sulfanyl]ethanone] | 2.86
O=C(NCC1CCCO1)C(c1cccs1)N(C(=O)c1ccc(-c2ccccc2)[nH]1)C1CCCC1 (stereo not given) [5-Phenyl-1H-pyrrole-2-carboxylic acid cyclopentyl-{[(tetrahydro-furan-2-ylmethyl)-carbamoyl]-thiophen-2-yl-methyl}-amide] | 7.73
O=[N+]([O-])c1cc(-n2c(O)c3c(c2O)CCCC3)ccc1NC1CCN(Cc2ccccc2)CC1 [2-[3-nitro-4-[[1-(phenylmethyl)-4-piperidinyl]amino]phenyl]-3a,4,5,6,7,7a-hexahydroisoindole-1,3-dione] | 28.1
O=C(CNC(=O)/C(=C/c1ccccc1)NC(=O)c1ccc(Br)cc1)OCc1ccccc1 [(phenylmethyl) 2-[[(Z)-2-[(4-bromophenyl)carbonylamino]-3-phenyl-prop-2-enoyl]amino]ethanoate] | 2
CCOc1ccc2nc(Sc3cc(O)n(-c4cccc(OC)c4)c3O)sc2c1 [3-(6-Ethoxy-benzothiazol-2-ylsulfanyl)-1-(3-methoxy-phenyl)-pyrrolidine-2,5-dione] | 11
CN(CC(=O)N1CCN(Cc2ccccc2)CC1)S(=O)(=O)c1cccc2nsnc12 [MLS000674627] | 0.27
CC1Cc2ccccc2N1C(=O)CN(C)S(=O)(=O)c1cccc2cccnc12 (stereo not given) [MLS000523063] | 17.5
COc1ccc(-c2cc(CNC(=O)CN(C)Cc3ccccc3)on2)cc1 [2-[benzyl(methyl)amino]-N-[[3-(4-methoxyphenyl)-1,2-oxazol-5-yl]methyl]acetamide] | 24.6
O=C(O)c1cc(-c2ccc(F)cc2F)ccc1O | 3.25
COc1cc(C(=S)N2CCOCC2)cc(OC)c1OC(=O)Cc1ccc(F)cc1 [(2,6-dimethoxy-4-morpholin-4-ylcarbothioyl-phenyl) 2-(4-fluorophenyl)ethanoate] | 3.24
Cc1ccc(-c2n[nH]c(=S)n2NC=CCc2ccccc2[N+](=O)[O-])cc1 | 1.28
CN1C(=O)/C(=C/c2ccccc2OCc2ccccc2)NC1=S [(5Z)-3-methyl-5-[(2-phenylmethoxyphenyl)methylidene]-2-sulfanylidene-4-imidazolidinone] | 1640

SMILES | EC50 [µM]
Cc1nn(-c2nc3ccccc3[nH]2)c(N)c1-c1ccccc1 [MLS000063763] | 24.4
CC(C)c1onc(C(=O)N2CCN(Cc3ccccc3)CC2)c1[N+](=O)[O-] [(4-benzylpiperazin-1-yl)-(4-nitro-5-propan-2-yl-1,2-oxazol-3-yl)methanone] | 0.392
O=c1[nH]c2c(s1)C(c1ccccc1)c1c(c(O)n(-c3ccccc3)c1O)S2 (stereo not given) | 0.0458
CN1c2ccccc2Oc2nnc(N3CCN(Cc4ccccc4)CC3)cc21 [3-(4-benzylpiperazin-1-yl)-5-methylpyridazino[3,4-b][1,4]benzoxazine] | 1.88
CCCCCC(=O)Cc1cc(O)cc2c1C(=O)Oc1cc(O)c(C(=O)O)c(CCCCC)c1O2 [3,8-Dihydroxy-11-oxo-1-(2-oxo-heptyl)-6-pentyl-11H-dibenzo[b,e][1,4]dioxepine-7-carboxylic acid] | 8.19
O=C(CSc1nnnn1-c1ccc(Cl)cc1)N1CCc2ccccc2C1 [2-[1-(4-chlorophenyl)tetrazol-5-yl]sulfanyl-1-(3,4-dihydro-1H-isoquinolin-2-yl)ethanone] | 1.42
Cc1nn(-c2ccc(F)cc2)c(C)c1NS(=O)(=O)c1ccc(Cl)cc1 [4-chloranyl-N-[1-(4-fluorophenyl)-3,5-dimethyl-pyrazol-4-yl]benzenesulfonamide] | 3290
Cc1ccccc1-c1nc(CS(=O)(=O)CC(=O)NCc2ccccc2)c(C)o1 [2-[[5-methyl-2-(2-methylphenyl)-1,3-oxazol-4-yl]methylsulfonyl]-N-(phenylmethyl)ethanamide] | 110
CSCCC(=O)N1CCCC(CNC(=O)c2ccc(-c3ccccc3)cc2)C1 (stereo not given) [MLS000733867] | 21
O=C(O)CC/C(=C\c1ccc(N2CCCC2)c([N+](=O)[O-])c1)c1nc2ccccc2s1 [(E)-4-(1,3-benzothiazol-2-yl)-5-(3-nitro-4-pyrrolidin-1-yl-phenyl)pent-4-enoic acid] | 233
C=CCn1c(Cc2cccs2)nnc1SCC(=O)c1ccc2ccccc2c1 [1-(2-naphthalenyl)-2-[[4-prop-2-enyl-5-(thiophen-2-ylmethyl)-1,2,4-triazol-3-yl]thio]ethanone] | 6.12
O=C(NC(=S)Nc1cccc2cccnc12)c1cccs1 [MLS000688132] | 0.156
C=CCNc1oc(Cc2cccc3ccccc23)nc1C#N [2-(1-naphthalenylmethyl)-5-(prop-2-enylamino)-4-oxazolecarbonitrile] | 4.49
O=C(NN1C(=O)/C(=C/c2nc3ccccc3[nH]2)SC1=S)c1ccccc1Cl [N-{5-[1-(1H-Benzoimidazol-2-yl)-meth-(Z)-ylidene]-4-oxo-2-thioxo-thiazolidin-3-yl}-2-chloro-benzamide] | 0.128
Cn1nccc1C(=O)OCC(=O)Nc1nc(-c2ccccc2)cs1 [2-Methyl-2H-pyrazole-3-carboxylic acid (4-phenyl-thiazol-2-ylcarbamoyl)-methyl ester] | 6.08
O=C(Cn1cnc2c(nnn2Cc2ccc(F)cc2)c1=O)NCc1ccc2c(c1)OCO2 [2-[3-(4-fluorobenzyl)-7-keto-triazolo[4,5-d]pyrimidin-6-yl]-N-piperonyl-acetamide] | 1.48
CCn1c(SCC(=O)Nc2ccc(Cl)cc2)nc2nc3c(cc2c1=O)CCCC3 [MLS000589154] | 45.5
S=C(NCCc1ccccc1)NN=Cc1cccc(Cl)c1Cl [1-[(2,3-dichlorobenzylidene)amino]-3-phenethyl-thiourea] | 22.7
O=C(NCc1ccc2c(c1)OCO2)c1ccc(COc2cc(Cl)ccc2Cl)o1 [5-[(2,5-dichlorophenoxy)methyl]-N-piperonyl-2-furamide] | 7.14
Cc1cc(C)c(C#N)c(N2CCN(Cc3ccccc3)CC2)n1 [2-(4-benzyl-1-piperazinyl)-4,6-dimethylnicotinonitrile] | 8.18
S=C(NCc1cccnc1)Nc1ccc(Oc2ccccc2)cc1 [1-(4-phenoxyphenyl)-3-(3-pyridinylmethyl)thiourea] | 1.19
CNc1ccc2oc(C[C@H]3O[C@@]4(CC[C@H]3C)O[C@H]([C@H](C)C(=O)c3ccc[nH]3)[C@H](C)C[C@H]4C)nc2c1C(=O)O [MLS001056783] | 9.96

same assay, conditions: inactive by the depositor's call

SMILES | EC50 [µM]
Sc1ccc2ccccc2n1 [MLS001006012] | 7.95
